Drawing on patent US20230107216A1, “PANTETHEINE DERIVATIVES AND USES THEREOF” (Comet Therapeutics, Inc., priority 2018, published 2023), this text covers activation and inhibition for 13 compounds.

Molecules are shown by their SMILES.

The first experiment deals with HepG2 cells. Briefly: MitoBiogenesis In-Cell ELISA (COX-I, SDH-A). The note with it: Homo sapiens, 168 h, 10 uM, 7 days, read-out: % increase in Mitochondrial Biogenesis. Type of experiment: cell-based. In a few lines: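 HepG2 cells were plated, adhered overnight at 37 °C/5% CO2, then exposed to test compounds (50–10 μM) in DMEM with 10% FBS for 7 days without media change; vehicle was 0.2% DMSO. COX-I and SDH-A were measured by in-cell ELISA and reported as signal relative to vehicle, n=2.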
A general note: An ELISA detects its analyte on a solid surface through an enzyme-linked reagent.
`CC(C)(CO)[C@@H](OC(=O)CCC(=O)O)C(=O)NCCC(=O)NCCS` [Compound 1311, (R)-4-((4-hydroxy-1-((3-((2-mercaptoethyl)amino)-3-oxopropyl)amino)-3,3-dimethyl-1-oxobutan-2-yl)oxy)-4-oxobutanoic acid]: the activation at 10 µM is 5%.
Regarding `CC(C)C(=O)CC(=O)SCCNC(=O)CCNC(=O)[C@H](O)C(C)(C)CO` [Compound 1239, (R)—S-(2-(3-(2,4-dihydroxy-3,3-dimethylbutanamido)propanamido)ethyl) 4-methyl-3-oxopentanethioate], the activation at 10 µM is more than 5%.

Staying with this experiment, now noted: Homo sapiens, 168 h, 50 uM, 7 days, read-out: % increase in Mitochondrial Biogenesis.
As for `COC(=O)C(C)C(=O)SCCNC(=O)CCNC(=O)[C@H](O)C(C)(C)CO` (some centres unmarked) [Compound 405], the activation at 50 µM is more than 5%.
For `CCC(C)C(=O)CC(=O)SCCNC(=O)CCNC(=O)[C@H](O)C(C)(C)CO` (stereo partly drawn) [Compound 1240, S-(2-(3-((R)-2,4-dihydroxy-3,3-dimethylbutanamido)propanamido)ethyl) 4-methyl-3-oxohexanethioate], the activation at 50 µM was more than 20%.
As to `COC(=O)CCC(=O)SCCNC(=O)CCNC(=O)[C@H](O)C(C)(C)CO` [Compound 4, Methyl (R)-4-((2-(3-(2,4-dihydroxy-3,3-dimethylbutanamido)propanamido)ethyl)thio)-4-oxobutanoate], the activation at 50 µM is more than 5%.
For `CC(O)C(C(=O)SCCNC(=O)CCNC(=O)[C@H](O)C(C)(C)CO)C(C)O` (stereo partly drawn) [Compound 1285, (2R)-2,4-dihydroxy-N-[2-[(2-[[3-hydroxy-2-(1-hydroxyethyl)butanoyl]sulfanyl]ethyl)carbamoyl]ethyl]-3,3-dimethylbutanamide], the activation at 50 µM is more than 10%.
As for `C/C=C/C(=O)SCCNC(=O)CCNC(=O)[C@H](O)C(C)(C)COP(=O)(O)O` [Compound 82, (R)—S-(2-(3-(2-hydroxy-3,3-dimethyl-4-(phosphonooxy)butanamido)propanamido)ethyl) (E)-but-2-enethioate], the activation at 50 µM is more than 10%.

The test system of another experiment is primary fibroblasts GM00649, GM06225, GM00612, GM00444, GM03672. Briefly: MMP, ROS and ATP multiplex (ArrayScan). The note with it: Homo sapiens, Fibroblast; Leigh GM03672; procedure Example 838; 50 μM (table line r25); read-out: Decreased ROS by at least 10%. Type of experiment: cell-based. The method, then:
Cell culture and treatments. Primary adherent fibroblasts were cultured in minimum essential medium (MEM) (Gibco, 25030081) supplemented with 2 mM L-Glutamine (Gibco, 25030081), 15% fetal bovine serum (FBS) (Gibco, 26400044) and 1% penicillin/streptomycin (Gibco, 5140122) at 37° C. and 5% CO2. Cells were collected for either passaging or experiment at ˜70-80% confluence. Cells were obtained by trypsinization and seeded at 10000 cells/well in cell culture microplates (Seahorse Bioscience, 101085-004) and allowed to adhere for 16 hours in culture media. After media was refreshed with DMEM (Agilent Seahorse 103575-100) supplemented with 1 mM glucose and 10% FBS (Gibco, 26400044). At the end of the incubation period, the cells were loaded with the relevant dye/antibody for each cell health marker. The assay provided simultaneous measurement of cell health parameters including cell count, ROS formation (DHE), mitochondrial membrane potential (MitoTracker®) and cellular ATP content (CellTiter-Glo®, Promega). The plates were then scanned using an automated fluorescent cellular imager, ArrayScan® (Thermo Scientific Cellomics). Assay conditions were optimized by one skilled in the art.
Primary cells used in this example were obtained from Coriell Institute for Medical Research and consisted of GM00649, MSUD (Maple Syrup Urine Disease) Tyle IA; GM06225, Kearns-Sayre Syndrome; GM00612, MSUD (Maple Syrup Urine Disease) Tyle II GM00444, Pyruvate Carboxylase Deficiency and GM03672, Leigh Syndrome.
For the compound `COC(=O)CC(C(C)=O)C(=O)SCCNC(=O)CCNC(=O)[C@H](O)C(C)(C)CO` (some centres unmarked) [Compound 410], the inhibition at 50 µM is not below 10%.
Take `CC(C)(CO)[C@@H](O)C(=O)NCCC(=O)NCCSC(=O)CC(=O)CCC(=O)O` [Compound 2, 6-[(2-[3-[(2R)-2,4-dihydroxy-3,3-dimethylbutanamido]propanamido]ethyl)sulfanyl]-4,6-dioxohexanoic acid]: the inhibition at 50 µM was not below 10%.
As for `CC(=O)OCC(C)(C)[C@@H](O)C(=O)NCCC(=O)NCCSC(=O)CC(=O)CCC(=O)O` [Compound 140, 6-[(2-[3-[(2R)-4-(acetyloxy)-2-hydroxy-3,3-dimethylbutanamido]propanamido]ethyl)sulfanyl]-4,6-dioxohexanoic acid], the inhibition at 50 µM is not below 10%.
Consider `C[C@H](O)CC(=O)CC(=O)SCCNC(=O)CCNC(=O)[C@H](O)C(C)(C)CO` [Compound 1306, (2R)-2,4-dihydroxy-N-[2-[(2-[[(5S)-5-hydroxy-3-oxohexanoyl]sulfanyl]ethyl)carbamoyl]ethyl]-3,3-dimethylbutanamide], for which the inhibition at 50 µM was not below 10%.
On the same count and under the same terms, with `CC(C)(CO)[C@@H](O)C(=O)NCCC(=O)NCCSC(=O)CCCO` [Compound 1304, (2R)-2,4-dihydroxy-N-[2-([2-[(4-hydroxybutanoyl)sulfanyl]ethyl]carbamoyl)ethyl]-3,3-dimethylbutanamide] the figure was not below 10%.
For `CCC(=O)CC(=O)SCCNC(=O)CCNC(=O)[C@H](O)C(C)(C)CO` [Compound 382, (2R)-2,4-dihydroxy-3,3-dimethyl-N-[2-([2-[(3-oxopentanoyl)sulfanyl]ethyl]carbamoyl)ethyl]butanamide], the inhibition at 50 µM was not below 10%.

Still in this experiment, the particulars now being: Homo sapiens, Fibroblast; PC GM00444; procedure Example 838; 5 μM; read-out: Decreased ROS by at least 10%.
As to `CC(C)(CO)[C@@H](O)C(=O)NCCC(=O)NCCSC(=O)CC(=O)CCC(=O)O` [Compound 2, 6-[(2-[3-[(2R)-2,4-dihydroxy-3,3-dimethylbutanamido]propanamido]ethyl)sulfanyl]-4,6-dioxohexanoic acid], the inhibition at 5 µM was not below 10%.
